Laboratory results taken from EP0562575B1, “N-substituted-3-(substituted hydrazino)-benzenesulfonamide derivative, preparation process thereof, and herbicidal compositions” (KUREHA KAGAKU KOGYO KABUSHIKI KAISHA, priority 1992, dated 1993).
Like-named read-outs stand apart in the source and are kept apart here.

Key:
Format in all cases: in vivo
Amaranthus retroflexus [1] = assay: Germination test of seeds (Petri dish); conditions: A.r., seeds in Petri dish, 28 °C, 14 days
Experimental: (§1) Two sheets of filter paper were placed in a superposed relation in each of Petri dishes having a diameter of 9 cm. Water suspensions of each test compound (concentrations of the active ingredient: 0.25 ppm and 2.5 ppm) were separately poured in an amount of 6ml per dish into the Petri dishes. Seeds of Amaranthus retroflexus, (Redroot pigweed), Bidens pilosa (Common blackjack), Matricaria chamomilla (Wild chamomile), Solanum nigrum (Black nightshade), Echinochloa crus-galli(Barnyard grass), Cyperus iria (Rice flatsedge) and Setaria viridis (Green foxtail) were placed at a rate of 10 seeds per dish in the Petri dishes. They were thereafter allowed to germinate in a constant-temperature chamber at 28 °C. Fourteen days later after placement in the Petri dishes, the degrees of germination and growth inhibition were observed visually. The observation results were ranked in accordance with the below-described 6-stage system.

Bidens pilosa [2] = assay: Germination test of seeds (Petri dish); conditions: B.p., seeds in Petri dish, 28 °C, 14 days
Experimental: as §1

Cyperus iria = assay: Germination test of seeds (Petri dish); conditions: C.i., seeds in Petri dish, 28 °C, 14 days
Experimental: as §1

Echinochloa crus-galli = assay: Germination test of seeds (Petri dish); conditions: E.c., seeds in Petri dish, 28 °C, 14 days
Experimental: as §1

Matricaria chamomilla [3] = assay: Germination test of seeds (Petri dish); conditions: M.c., seeds in Petri dish, 28 °C, 14 days
Experimental: as §1

Setaria viridis [4] = assay: Germination test of seeds (Petri dish); conditions: S.v., seeds in Petri dish, 28 °C, 14 days
Experimental: as §1

Solanum nigrum [5] = assay: Germination test of seeds (Petri dish); conditions: S.n., seeds in Petri dish, 28 °C, 14 days
Experimental: as §1

Abutilon theophrasti = assay: Test on herbicidal activity by foliar application; conditions: A.t; 50 g/ha foliar spray, 2 - 4 leaf stage, 14 days
Text: (§2) Herbicidal solutions of each test compound, which had been prepared by dissolving at predetermined concentrations such as wettable powder of the test compound as that described in the above formulation example, and sprayed at dosages of 5 g/ha and 50 g/ha over foliar parts of Amaranthus retroflexus, (Redroot pigweed), Bidens pilosa (Common blackjack), Sinapis arvensis (Wild mustard), Stellaria media (Common chickweed), Cassia obtusifolia (Sicklepod), Solanum nigrum (Black nightshade), Abutilon theophrasti (Velvetleaf), Convolvulus arvensis (Field bindweed), Matricaria chamomilla (Wild chamomile), Setaria viridis (Green foxtail), Echinochloa frumentaceum (Barnyard grass), Avena fatua (Wild oat), and Digitaria adscendens (Henry crabgrass) which had been allowed to grow individually to 2 - 4 leaf stage in pots. Fourteen days later after spraying of the test compound, its herbicidal acrivity was evaluated in accordance with the below-described system.
(§3) 0: no effects 1: less than 30% of total kill 2: 31 - 50% of total kill 3: 51 - 70% of total kill 4: 71 - 90% of total kill 5: 91 - 100% of total kill.

Amaranthus retroflexus [6] = assay: Test on herbicidal activity by foliar application; conditions: A.r; 50 g/ha foliar spray, 2 - 4 leaf stage, 14 days
Text: as §2, §3

Avena fatua = assay: Test on herbicidal activity by foliar application; conditions: A.f.; 50 g/ha foliar spray, 2 - 4 leaf stage, 14 days
Text: as §2, §3

Bidens pilosa [7] = assay: Test on herbicidal activity by foliar application; conditions: B.p; 50 g/ha foliar spray, 2 - 4 leaf stage, 14 days
Text: as §2, §3

Cassia obtusifolia = assay: Test on herbicidal activity by foliar application; conditions: C.o.; 50 g/ha foliar spray, 2 - 4 leaf stage, 14 days
Text: as §2, §3

Convolvulus arvensis = assay: Test on herbicidal activity by foliar application; conditions: C.a.; 50 g/ha foliar spray, 2 - 4 leaf stage, 14 days
Text: as §2, §3

Digitaria adscendens = assay: Test on herbicidal activity by foliar application; conditions: D.a.; 50 g/ha foliar spray, 2 - 4 leaf stage, 14 days
Text: as §2, §3

Echinochloa frumentaceum = assay: Test on herbicidal activity by foliar application; conditions: E.f.; 50 g/ha foliar spray, 2 - 4 leaf stage, 14 days
Text: as §2, §3

Matricaria chamomilla [8] = assay: Test on herbicidal activity by foliar application; conditions: M.c; 50 g/ha foliar spray, 2 - 4 leaf stage, 14 days
Text: as §2, §3

Setaria viridis [9] = assay: Test on herbicidal activity by foliar application; conditions: S.v.; 50 g/ha foliar spray, 2 - 4 leaf stage, 14 days
Text: as §2, §3

Sinapis arvensis = assay: Test on herbicidal activity by foliar application; conditions: S.a.; 50 g/ha foliar spray, 2 - 4 leaf stage, 14 days
Text: as §2, §3

Solanum nigrum [10] = assay: Test on herbicidal activity by foliar application; conditions: S.n; 50 g/ha foliar spray, 2 - 4 leaf stage, 14 days
Text: as §2, §3

Stellaria media = assay: Test on herbicidal activity by foliar application; conditions: S.m.; 50 g/ha foliar spray, 2 - 4 leaf stage, 14 days
Text: as §2, §3

Galium aparine = assay: Test for selective herbicidal effect in post-emergence by treatment of stalks and leaves; conditions: 1 - to 2 - leaf stage, 21 days
Experimental: (§4) Wheat and the weed were reared from seeds in the planters in a glasshouse. When the young plants had reached the 1 - to 2 - leaf stage, the wettable powders prepared in the same manner as Preparation Example 1 described above were diluted with water to a prescribed concentration and sprayed uniformly to the stalks arid leaves of the plants and on the soil surface in the planters by a spray gun so that the acrive ingredient would be applied at a rate of 5 g/ha and 50 g/ha. Then the planters were kept in the glasshouse. Twenty-one days after said treatment, the herbicidal effect of the compositions on the weeds and phytotoxicity of the crops were observed and evaluated according to the following ratings.

Wheat = system: Wheat; design: key: 0: no inhibition; less than 31%; 2: 31 - 50%; 3: 51 - 70%; 4: 71 - 90%; 5: 91 - 100%; conditions: 1 - to 2 - leaf stage, 21 days
Experimental: as §4

For `CC=NNc1ccc(C(=O)OC)c(S(=O)(=O)NC(=O)Nc2nc(OC)nc(OC)n2)c1` [Compound I-1], the Growth inhibition rate (Amaranthus retroflexus [1]; 0.25 ppm) was 3 (51 - 70%), the Growth inhibition rate (Amaranthus retroflexus [1]; 2.5 ppm) was 5 (91 - 100%) and the Growth inhibition rate (Bidens pilosa [2]; 0.25 ppm) was 3 (51 - 70%). For the same compound, the Growth inhibition rate (Bidens pilosa [2]; 2.5 ppm) was 4 (71 - 90%), the Growth inhibition rate (Cyperus iria; 0.25 ppm) was 2 (31 - 50%) and the Growth inhibition rate (Cyperus iria; 2.5 ppm) was 4 (71 - 90%). For the same compound, the Growth inhibition rate (Echinochloa crus-galli; 0.25 ppm) was 2 (31 - 50%), the Growth inhibition rate (Echinochloa crus-galli; 2.5 ppm) was 3 (51 - 70%) and the Growth inhibition rate (Matricaria chamomilla [3]; 0.25 ppm) was 2 (31 - 50%). The Growth inhibition rate (Matricaria chamomilla [3]; 2.5 ppm) was 4 (71 - 90%), the Growth inhibition rate (Setaria viridis [4]; 0.25 ppm) was 3 (51 - 70%) and the Growth inhibition rate (Setaria viridis [4]; 2.5 ppm) was 4 (71 - 90%). The Growth inhibition rate (Solanum nigrum [5]; 0.25 ppm) was 2 (31 - 50%), the Growth inhibition rate (Solanum nigrum [5]; 2.5 ppm) was 3 (51 - 70%) and the Herbicidal activity (Abutilon theophrasti) was 5 (91 - 100% of total kill). The Herbicidal activity (Amaranthus retroflexus [6]) was 5 (91 - 100% of total kill), the Herbicidal activity (Avena fatua) was 2 (31 - 50% of total kill) and the Herbicidal activity (Bidens pilosa [7]) was 5 (91 - 100% of total kill). The Herbicidal activity (Cassia obtusifolia) was 5 (91 - 100% of total kill), the Herbicidal activity (Convolvulus arvensis) was 5 (91 - 100% of total kill) and the Herbicidal activity (Digitaria adscendens) was 4 (71 - 90% of total kill). For the same compound, the Herbicidal activity (Echinochloa frumentaceum) was 3 (51 - 70% of total kill), the Herbicidal activity (Matricaria chamomilla [8]) was 5 (91 - 100% of total kill) and the Herbicidal activity (Setaria viridis [9]) was 3 (51 - 70% of total kill). For the same compound, the Herbicidal activity (Sinapis arvensis) was 5 (91 - 100% of total kill), the Herbicidal activity (Solanum nigrum [10]) was 5 (91 - 100% of total kill) and the Herbicidal activity (Stellaria media) was 5 (91 - 100% of total kill). The “Growth inhibition rate (herbicidal effect)” value (Galium aparine; 5 g/ha post-emergence spray) was 5 (91 - 100%), the “Growth inhibition rate (herbicidal effect)” value (Galium aparine; 50 g/ha post-emergence spray) was 5 (91 - 100%) and the “Growth inhibition rate (phytotoxicity of the crops)” value (Wheat; 5 g/ha post-emergence spray) was 0. For the same compound, the “Growth inhibition rate (phytotoxicity of the crops)” value (Wheat; 50 g/ha post-emergence spray) was 0.
